Measured values as given in patent publication US7138418B2, “Pentafluorobenzenesulfonamides and analogs” (Amgen, Inc., priority 1996, dated 2006).

Test system: LDL receptor expression in Hep G2 cells
Experiment: LDL receptor expression in Hep G2 cells by western-blot analysis
Type: cell-based
Settings: Homo sapiens, HepG2, minimum concentration at which a maximal induction of LDL receptor was observed
Experimental: Compounds may be evaluated in vitro for their ability to increase LDL receptor expression using western-blot analysis, for example, as described in Tam et al. (1991) J. Biol. Chem. 266, 16764. Established animal models to evaluate hypocholesterolemic effects of compounds are known in the art. […] 81, 300; Evans et al. (1994) J. Lipid Res. 35, 1634; Lin et al (1995) J. Med. Chem. 38, 277.
Compounds were evaluated for their ability to increase LDL receptor expression in Hep G2 cells using western-blot analysis as described in Tam et al., J. Biol. Chem., 266, 16764 (1991).

| Structure (SMILES) | EC (max) |
| --- | --- |
| O=S(=O)(Nc1ccc(N2CCOCC2)cc1)c1c(F)c(F)c(F)c(F)c1F [Example 25, 4-(1-Morpholino)-1-pentafluorophenylsulfonamidobenzene] | 15 µM |
| COc1ccc(NS(=O)(=O)c2c(F)c(F)c(F)c(F)c2F)cc1 [Example 8, 4-Methoxy-1-pentafluorophenylsulfonamidobenzene] | 0.5 µM |
| COc1ccc(NS(=O)(=O)c2c(F)c(F)c(F)c(F)c2F)cc1Br [Example 31, 2-Bromo-1-methoxy-4-pentafluorophenylsulfonamidobenzene] | ≤ 5 µM |
| O=S(=O)(Nc1ccc2[nH]ncc2c1)c1c(F)c(F)c(F)c(F)c1F [Example 15, 5-Pentafluorophenylsulfonamidoindazole] | 15 µM |
| COc1ccc(NS(=O)(=O)c2c(F)c(F)c(F)c(F)c2F)cc1O [Example 6, 2-Hydroxy-1-methoxy-4-pentafluorophenylsulfonamidobenzene] | 0.15 µM |
| O=S(=O)(Nc1ccc2c(c1)OCCO2)c1c(F)c(F)c(F)c(F)c1F [Example 3, 1,2-Ethylenedioxy-4-pentafluorophenylsulfonamidobenzene] | 5 µM |
| COc1ccc(NS(=O)(=O)c2c(F)c(F)c(F)c(F)c2F)cc1Cl [Example 32, 2-Chloro-1-methoxy-4-pentafluorophenylsulfonamidobenzene] | 1.5 µM |
| CN(C)c1cccc(NS(=O)(=O)c2c(F)c(F)c(F)c(F)c2F)c1 [Example 2, 3-(N,N-Dimethylamino)-1-pentafluorophenylsulfonamidobenzene] | 5 µM |
| CN(C)c1ccc(N(C)S(=O)(=O)c2c(F)c(F)c(F)c(F)c2F)cc1 [Example 17, 4-(N,N-Dimethylamino)-1-(N-methylpentafluorophenylsulfonamido)benzene] | 5 µM |
| CCN(CC)c1ccc(NS(=O)(=O)c2c(F)c(F)c(F)c(F)c2F)cc1 [Example 12, 4-(N,N-Diethylamino)-1-pentafluorophenylsulfonamidobenzene] | 5 µM |
| O=S(=O)(Nc1cccc(O)c1)c1c(F)c(F)c(F)c(F)c1F [Example 9, 3-Hydroxy-1-pentafluorophenylsulfonamidobenzene] | 5 µM |
| COc1ccc(N(C)S(=O)(=O)c2c(F)c(F)c(F)c(F)c2F)cc1F [Example 30, 2-Fluoro-1-methoxy-4-(N-methylpentafluorophenylsulfonamido)benzene] | 15 µM |
| O=S(=O)(Nc1ccc2c(c1)OCO2)c1c(F)c(F)c(F)c(F)c1F [Example 4, 1,2-Methylenedioxy-4-pentafluorophenylsulfonamidobenzene] | ≤ 5 µM |
| CN(C)c1ccc(NS(=O)(=O)c2c(F)c(F)c(F)c(F)c2F)cc1 [Example 1, 4-(N,N-Dimethylamino)-1-pentafluorophenylsulfonamidobenzene] | 0.5 µM |
| COc1cccc(NS(=O)(=O)c2c(F)c(F)c(F)c(F)c2F)c1 [Example 24, 3-Methoxy-1-pentafluorophenylsulfonamidobenzene] | 15 µM |

Test system: not given
Experiment: not given
Settings: not given

| Structure (SMILES) | melting point |
| --- | --- |
| O=S(=O)(Nc1ccc(Cl)nc1)c1c(F)c(F)c(F)c(F)c1F [Example 36, 2-Chloro-5-pentafluorophenylsulfonamidopyridine] | 144 to 145 °C |
| COc1ccc(NS(=O)(=O)c2c(F)c(F)c(F)c(F)c2F)cc1[N+](=O)[O-] [Example 58, 4-Methoxy-3-nitro-1-pentafluorophenylsulfonamidobenzene] | 95 to 97 °C |
| COc1ccc(NS(=O)(=O)c2c(F)c(F)c(F)c(F)c2F)cc1 [Example 8, 4-Methoxy-1-pentafluorophenylsulfonamidobenzene] | 102 to 103 °C |
| C=CCCN(c1ccc(OC)cc1)S(=O)(=O)c1c(F)c(F)c(F)c(F)c1F [Example 51, 1-(N-(3-Butenyl)pentafluorophenylsulfonamido)-4-methoxybenzene] | 64 to 66 °C |
| COc1ccc(N(CCCC(O)CO)S(=O)(=O)c2c(F)c(F)c(F)c(F)c2F)cc1 (centres unmarked) [Example 55, 1-(N-(4,5-Dihydroxypentyl)pentafluorophenylsulfonamido)-4-methoxybenzene] | 116 to 118 °C |
| COc1ccc(NS(=O)(=O)c2c(F)c(F)c(F)c(F)c2F)cc1N [Example 59, 3-Amino-4-methoxy-1-pentafluorophenylsulfonamidobenzene] | 142 to 143 °C |
| COc1ccc(N(CCCCCO)S(=O)(=O)c2c(F)c(F)c(F)c(F)c2F)cc1O [Example 37, 2-Hydroxy-1-methoxy-4-(N-(5-hydroxypentyl)-pentafluorophenylsulfonamido)benzene] | 118 °C |
| COc1ccc(N(CCC(O)CO)S(=O)(=O)c2c(F)c(F)c(F)c(F)c2F)cc1 (centres unmarked) [Example 54, 1-(N-(3,4-Dihydroxybutyl)pentafluorophenylsulfonamido)-4-methoxybenzene] | 126 to 128 °C |
| COc1cc(Br)c(NS(=O)(=O)c2c(F)c(F)c(F)c(F)c2F)cc1F [Example 41, 1-Bromo-4-fluoro-5-methoxy-2-pentafluorophenylsulfonamidobenzene] | 109 °C |
| C=CCN(c1ccc(OC)cc1)S(=O)(=O)c1c(F)c(F)c(F)c(F)c1F [Example 50, 4-Methoxy-1-(N-(2-propenyl)pentafluorophenylsulfonamido)benzene] | 59 to 60 °C |
| COc1ccc(N(CCCCCO)S(=O)(=O)c2c(F)c(F)c(F)c(F)c2F)cc1 [Example 57, 4-Methoxy-1-(N-(5-hydroxypentyl)pentafluorophenylsulfonamido)benzene] | 96 to 97 °C |
| COc1ccc(N(CCCCO)S(=O)(=O)c2c(F)c(F)c(F)c(F)c2F)cc1 [Example 56, 1-(N-(4-hydroxybutyl)pentafluorophenylsulfonamido)-4-methoxybenzene] | 88 to 90 °C |
| COc1ccc(N(CC(O)CO)S(=O)(=O)c2c(F)c(F)c(F)c(F)c2F)cc1 (centres unmarked) [Example 53, 1-(N-(2,3-Dihydroxypropyl)pentafluorophenylsulfonamido)-4-methoxybenzene] | 130 to 131 °C |
| COc1ccc(NS(=O)(=O)c2c(F)c(F)c(F)c(F)c2F)cc1C(F)(F)F [Example 49, 4-Methoxy-1-pentafluorophenylsulfonamido-3-trifluoromethylbenzene] | 121 to 123 °C |
